Patent US11685719B2, “Pyridinone MK2 inhibitors and uses thereof” (Xinthera, Inc., priority 2021, dated 2023)

Columns and labels:
p38a/MK2 = p38a/MK2 (Homo sapiens (Human), UniProt P49137+Q16539); assay: biochemical; settings: 10-point 1:3 dilution, top dose 1 μM; 10 μM ATP, 2 h incubation; read-out: p38a/MK2 (1 μM) Enzyme pIC50 (converted)
In short: (§1)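 Recombinant N-terminal GST-tagged MK2 (F46-H400) or PRAK (M1-Q471), expressed in E. coli, were activated by p38. Activity read as phosphorylation of FITC-conjugated HSP27 peptide. IC50 taken as half-maximal inhibition of activation from 10-point 1:3 dilutions, top dose 1 or 10 μM for MK2 and 300 μM for PRAK.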

p38a/PRAK = p38a/PRAK (Homo sapiens (Human), UniProt Q16539); assay: biochemical; settings: 10-point 1:3 dilution, top dose 300 μM; 10 μM ATP, 2 h incubation; read-out: p38a/PRAK Enzyme pIC50 (converted)
Sequence of p38a/PRAK (Q16539 whole entry): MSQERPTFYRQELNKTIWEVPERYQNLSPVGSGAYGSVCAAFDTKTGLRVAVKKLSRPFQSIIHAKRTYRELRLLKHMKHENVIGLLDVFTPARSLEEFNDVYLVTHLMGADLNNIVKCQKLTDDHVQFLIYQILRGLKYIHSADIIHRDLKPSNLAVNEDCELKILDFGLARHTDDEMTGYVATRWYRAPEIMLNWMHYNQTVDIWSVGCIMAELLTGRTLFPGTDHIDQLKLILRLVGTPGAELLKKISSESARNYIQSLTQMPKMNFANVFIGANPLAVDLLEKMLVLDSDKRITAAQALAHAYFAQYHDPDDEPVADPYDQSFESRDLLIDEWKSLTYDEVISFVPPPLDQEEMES
In short: as §1

Sequence of p38a/MK2 (Q16539 whole entry): as above
Sequence of p38a/MK2 (P49137 46-400): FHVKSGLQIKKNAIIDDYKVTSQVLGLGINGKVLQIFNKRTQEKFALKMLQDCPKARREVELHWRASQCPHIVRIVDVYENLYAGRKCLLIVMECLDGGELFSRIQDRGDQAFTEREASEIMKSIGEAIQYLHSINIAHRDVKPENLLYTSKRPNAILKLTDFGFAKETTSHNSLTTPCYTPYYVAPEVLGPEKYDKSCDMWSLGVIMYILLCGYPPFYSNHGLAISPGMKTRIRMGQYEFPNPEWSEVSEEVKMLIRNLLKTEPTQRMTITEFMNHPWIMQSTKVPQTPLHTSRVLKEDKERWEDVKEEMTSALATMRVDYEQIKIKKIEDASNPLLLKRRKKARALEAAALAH

Structure (SMILES)	IC50 (p38a/MK2) [µM]	IC50 (p38a/PRAK) [µM]
[2H]C([2H])(Oc1cc(C)n(-c2cc(-n3ccc(F)c(C(C)(C)O)c3=O)ncc2C)c(=O)c1Cl)c1ncc(F)cc1F (single isomer, unassigned) [Example 26B, rel-3-chloro-4-[(3,5-difluoropyridin-2-yl)(2H2)methoxy]-2′-[4-fluoro-3-(2-hydroxypropan-2-yl)-2-oxopyridin-1-yl]-5′,6-dimethyl-[1,4′-bipyridin]-2-one]	> 0.1	> 316
CCOC(=O)C(C)(C)n1nc(-c2cc(-n3c(C)cc(OCc4ncc(F)cc4F)c(Cl)c3=O)c(C)cn2)ccc1=O (atropisomer, axis not shown) [Example 6, ethyl 2-(3-{3-chloro-4-[(3,5-difluoropyridin-2-yl)methoxy]-5′,6-dimethyl-2-oxo-[1,4′-bipyridin]-2′-yl}-6-oxopyridazin-1-yl)-2-methylpropanoate]	0.02	6.31
Cc1cnc(-n2cccc(C3(O)CCC3)c2=O)cc1-n1c(C)cc(OCc2ncc(F)cc2F)c(Cl)c1=O (single isomer, unassigned) [Example 12B, rel-3-chloro-4-[(3,5-difluoropyridin-2-yl)methoxy]-2′-[3-(1-hydroxycyclobutyl)-2-oxopyridin-1-yl]-5′,6-dimethyl-[1,4′-bipyridin]-2-one]	> 1	> 316
Cc1cnc(-n2cccc([C@@](C)(O)C3CC3)c2=O)cc1-n1c(C)cc(OCc2ncc(F)cc2F)c(Cl)c1=O (single isomer, unassigned) [Example 14D, rel-3-chloro-2′-[3-(1-cyclopropyl-1-hydroxyethyl)-2-oxopyridin-1-yl]-4-[(3,5-difluoropyridin-2-yl)methoxy]-5′,6-dimethyl-[1,4′-bipyridin]-2-one]	> 1	> 316
Cc1cnc(-n2ccnc(C(C)(C)O)c2=O)cc1-n1c(C)cc(OCc2ncc(F)cc2Cl)c(Cl)c1=O (single isomer, unassigned) [Example 24B, rel-3-chloro-4-[(3-chloro-5-fluoropyridin-2-yl)methoxy]-2′-[3-(2-hydroxypropan-2-yl)-2-oxopyrazin-1-yl]-5′,6-dimethyl-[1,4′-bipyridin]-2-one]	0.00251	5.01
Cc1ncc(-n2cccc(C(C)(C)O)c2=O)cc1-n1c(C)cc(OCc2ncc(F)cc2F)c(Cl)c1=O (single isomer, unassigned) [Example 16B, rel-5′-{3-chloro-4-[(3,5-difluoropyridin-2-yl)methoxy]-6-methyl-2-oxopyridin-1-yl}-3-(2-hydroxypropan-2-yl)-6′-methyl-[1,3′-bipyridin]-2-one]	> 1	> 316
[2H]C([2H])(Oc1cc(C)n(-c2cc(-n3ccnc(C(C)(C)O)c3=O)ncc2C)c(=O)c1Cl)c1ncc(C)cc1F (single isomer, unassigned) [Example 28A, rel-3-chloro-4-[(3-fluoro-5-methylpyridin-2-yl)(2H2)methoxy]-2′-[3-(2-hydroxypropan-2-yl)-2-oxopyrazin-1-yl]-5′,6-dimethyl-[1,4′-bipyridin]-2-one]	0.001	3.16
[2H]C([2H])(Oc1cc(C)n(-c2cc(-n3ccc(F)c(C(C)(C)O)c3=O)ncc2C)c(=O)c1Cl)c1ncc(F)cc1F (single isomer, unassigned) [Example 26A, rel-3-chloro-4-[(3,5-difluoropyridin-2-yl)(2H2)methoxy]-2′-[4-fluoro-3-(2-hydroxypropan-2-yl)-2-oxopyridin-1-yl]-5′,6-dimethyl-[1,4′-bipyridin]-2-one]	0.00251	3.16
Cc1cnc(-n2cc(C(C)(C)O)ccc2=O)cc1-n1c(C)cc(OCc2ncc(F)cc2F)c(Cl)c1=O (single isomer, unassigned) [Example 13A, rel-3-chloro-4-[(3,5-difluoropyridin-2-yl)methoxy]-2′-[5-(2-hydroxypropan-2-yl)-2-oxopyridin-1-yl]-5′,6-dimethyl-[1,4′-bipyridin]-2-one]	> 1	> 316
Cc1cnc(-n2cccc(C(C)C)c2=O)cc1-n1c(C)cc(OCc2ncc(F)cc2F)c(Cl)c1=O (single isomer, unassigned) [Example 17B, rel-3-chloro-4-[(3,5-difluoropyridin-2-yl)methoxy]-2′-(3-isopropyl-2-oxopyridin-1-yl)-5′,6-dimethyl-[1,4′-bipyridin]-2-one]	> 1	> 316
Cc1cnc(-n2cccc(C(C)(C)O)c2=O)cc1-n1c(C)nc(OCc2ncc(F)cc2F)c(Cl)c1=O (single isomer, unassigned) [Example 25A, rel-4′-{5-chloro-4-[(3,5-difluoropyridin-2-yl)methoxy]-2-methyl-6-oxopyrimidin-1-yl}-3-(2-hydroxypropan-2-yl)-5′-methyl-[1,2′-bipyridin]-2-one]	0.00398	6.31
